Entries after “also recorded” stand apart in the source; their conditions may differ.
Key:
[1] = tested on: neuroblastoma SH-SY5Y cells; test: DCFH-DA ROS scavenging assay in SH-SY5Y cells; format: cell-based
Description: (§1) We used a commercially available DCFH-DA (2′,7′-dichlorodihydrofluorescein diacetate) probe to assess the ROS scavenging power of ERGO in HeLa and neuroblastoma SH-SY5Y cells. Upon penetrating the cytoplasm, DCFH-DA is deacetylated by endogenous esterases to a non-fluorescent intermediate, followed by oxidation by free radicals. This generates a continuous and extended conjugation system, resulting in the production of highly fluorescent DCF (2′ 7′-dichlorofluorescein). In an aqueous condition, DCF has a maximal excitation and emission of 495 nm and 529 nm, respectively. Well-adhered HeLa or SH-SY5Y cells previously incubated with DCFH-DA were exposed to a commercial ROS initializer and ERGO concentrations ranging from 0-100 mM. […] Each point in the assay was measured in pentaplicate, p<0.0001.
(§2) On day 1, HeLa cells or SH-SY5Y cells were seeded into a 96-well plate with a density of 10,000 cells/mL. […] Immediately afterwards, fluorescence measurement began using a microplate reader (Biotek Industries, Agilent Technologies, Winooski, Vt., USA) with an excitation and emission wavelength of 485 nm and 528 nm, respectively. Each ERGO concentration was measured in pentaplicate.

HeLa cells = test: DCFH-DA ROS scavenging assay in HeLa cells; format: cell-based
Description: as §1, §2

5XFAD mice = test: Conditioned fear task after ERGO treatment; format: in vivo, mouse; details: ERGO-treated 5XFAD mice, novel context, 25 hours following training
Protocol: To address our primary question whether longitudinal consumption of ERGO as a potent antioxidant benefit the brain, three cohorts of animals (n=12 non-treated WT control, n=12 non-treated 5XFAD, and n=18 ERGO-treated 5XFAD) were used (FIG. 3.2A). Starting at the age of 8 weeks, the animals were treated with high doses of ERGO solution (25-50 mg/Kg) formulated in double distilled (dd) water via oral gavage three times a week over the course of eight weeks. To reduce bias in the behavioral experiments with regard to the potential stress during gavage treatment, non-treated animals underwent the identical gavage process with the vehicle, water, only. The efficacy of the therapy was evaluated by behavioral testing, followed by three different non-invasive PET imaging sessions to assess biomarkers related to AD pathology. In addition to assessing Abeta levels and glucose metabolism using the [^11C]PIB and [^18F]FDG probes, respectively; we also tested for the first time whether oxidative stress could be used as an indicator of response to therapy using the [^11C]ERGO PET radioligand. Finally, animals were euthanized, and the brains were collected for immunohistochemical analysis. […]
Mice were placed in a sound-attenuating chamber with a wire grid floor capable of transmitting an electric shock. All movements were monitored by cameras fixed to the inside of the doors. […]

C[N+](C)(C)[C@@H](Cc1c[nH]c(=S)[nH]1)C(=O)[O-] [ERGO, L-ergothioneine]
DCF fluorescence signal (ROS) ([1]; ERGO 100 mM): nearly negligible; also recorded: quenches the fluorescence totally
DCF fluorescence signal (ROS) ([1]; ERGO starting from 5 mM): attenuates the fluorescence significantly
DCF fluorescence signal (ROS) (HeLa cells; ERGO 100 mM): nearly negligible; also recorded: quenches the fluorescence totally
DCF fluorescence signal (ROS) (HeLa cells; ERGO starting from 5 mM): attenuates the fluorescence significantly
cue-based recall, freezing time while the cue was played (5XFAD mice): ~50%
